In article PMC7026498, “GABAA Receptor β2E155 Residue Located at the Agonist-Binding Site Is Involved in the Receptor Gating” (Frontiers in Cellular Neuroscience, 2020):

Key:
[1] = molecular target: T1, GABAA receptor α1β2γ2L (β2 subunit) (Rattus norvegicus, UniProt P62813+P63138); assay: whole-cell patch-clamp dose-response; format: cell-based
T1 construct: gene Gabrb2; recombinant α1β2γ2L receptor in HEK293 cells; with GABAA receptor α1 and γ2L subunits

[2] = molecular target: T2, GABAA receptor α1β2E155Cγ2L (β2 subunit) (Rattus norvegicus, UniProt P62813+P63138, P63138:E179C); assay: whole-cell patch-clamp dose-response (extrapolated Hill fit) and single-channel recording; format: cell-based
T2 construct: gene Gabrb2; recombinant α1β2E155Cγ2L receptor in HEK293 cells; with GABAA receptor α1 and γ2L subunits
T2 sequence (P63138 26-474 E179C): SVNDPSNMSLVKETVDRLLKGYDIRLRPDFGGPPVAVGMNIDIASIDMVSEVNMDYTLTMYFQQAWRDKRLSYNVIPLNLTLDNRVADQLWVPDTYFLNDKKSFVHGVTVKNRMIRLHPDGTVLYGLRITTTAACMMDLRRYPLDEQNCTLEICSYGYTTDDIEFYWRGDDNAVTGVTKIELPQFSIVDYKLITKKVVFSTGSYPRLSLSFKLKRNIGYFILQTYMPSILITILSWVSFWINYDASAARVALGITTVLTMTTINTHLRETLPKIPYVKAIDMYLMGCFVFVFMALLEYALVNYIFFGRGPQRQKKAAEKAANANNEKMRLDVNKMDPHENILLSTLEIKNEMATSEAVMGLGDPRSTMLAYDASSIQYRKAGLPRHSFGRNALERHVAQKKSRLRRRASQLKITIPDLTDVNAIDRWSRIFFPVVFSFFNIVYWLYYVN
T2 sequence (P62813 28-455): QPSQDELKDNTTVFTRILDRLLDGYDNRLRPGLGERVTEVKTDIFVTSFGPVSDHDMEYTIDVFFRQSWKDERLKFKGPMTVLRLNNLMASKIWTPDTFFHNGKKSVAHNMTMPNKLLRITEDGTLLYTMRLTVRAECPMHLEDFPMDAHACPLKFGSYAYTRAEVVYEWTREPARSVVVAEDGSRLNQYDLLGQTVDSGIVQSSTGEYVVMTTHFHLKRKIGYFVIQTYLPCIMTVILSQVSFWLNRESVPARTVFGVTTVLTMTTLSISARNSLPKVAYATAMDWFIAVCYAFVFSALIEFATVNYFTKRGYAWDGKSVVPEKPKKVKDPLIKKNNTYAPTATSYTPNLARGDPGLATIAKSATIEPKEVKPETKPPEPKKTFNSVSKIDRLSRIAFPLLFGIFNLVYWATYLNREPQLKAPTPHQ
T2 sequence (P18508 39-466 partner): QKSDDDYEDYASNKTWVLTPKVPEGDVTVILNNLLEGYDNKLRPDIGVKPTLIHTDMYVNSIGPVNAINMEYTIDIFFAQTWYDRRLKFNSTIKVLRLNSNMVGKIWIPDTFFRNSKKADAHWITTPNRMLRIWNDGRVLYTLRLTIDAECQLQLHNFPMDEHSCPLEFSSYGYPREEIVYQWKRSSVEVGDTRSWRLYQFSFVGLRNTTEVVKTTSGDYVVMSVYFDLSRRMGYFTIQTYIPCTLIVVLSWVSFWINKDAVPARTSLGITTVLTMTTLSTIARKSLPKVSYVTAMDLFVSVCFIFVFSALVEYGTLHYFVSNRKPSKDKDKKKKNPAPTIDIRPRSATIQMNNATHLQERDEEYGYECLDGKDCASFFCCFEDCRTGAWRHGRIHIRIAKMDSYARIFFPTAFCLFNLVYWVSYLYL

T1 sequence (P63138 26-474): as the sequence (P63138 26-474 E179C) above, with C154E counted along it
T1 sequence (P62813 28-455): as the sequence (P62813 28-455) above
T1 sequence (P18508 39-466 partner): as the sequence (P18508 39-466 partner) above

`NCc1cc(=O)[nH]o1` [MSC, muscimol] was tested, and the EC50 [1] was 0.009 mM and the EC50 [2] was 12.5 mM.
